In one assay the test system is Abeta 40. Put plainly: In vivo inhibition of beta-secretase: Abeta 40 reduction in CSF and brain of the rat. To be noted: 10 mpk (unless otherwise noted), after 4 hrs. An excerpt:
In Vivo Inhibition of Beta-Secretase
Several animal models, including mouse, rat, dog, and monkey, may be used to screen for inhibition of beta-secretase activity in vivo following administration of a test compound sample. Animals used in this invention can be wild type, transgenic, or gene knockout animals. For example, the Tg2576 mouse model, prepared and conducted as described in Hsiao et al., 1996, Science 274, 99-102, and other non-transgenic or gene knockout animals are useful to analyze in vivo inhibition of Amyloid beta peptide (Abeta) production in the presence of inhibitory test compounds. Generally, 2 to 18 month old Tg2576 mice, gene knockout mice or non-transgenic animals are administered test compounds formulated in vehicles, such as cyclodextran, phosphate buffers, hydroxypropyl methylcellulose or other suitable vehicles. One to twenty-four hours following the administration of compound, animals are sacrificed, and brains as well as cerebrospinal fluid (CSF) and plasma are removed for analysis of A-beta levels and drug or test compound concentrations (Dovey et al., 2001, Journal of Neurochemistry, 76, 173-181) Beginning at time 0, animals are administered by oral gavage, or other means of delivery such as intravenous injection, an inhibitory test compound of up to 100 mg/kg in a standard, conventional formulation, such as 2% hydroxypropyl methylcellulose, 1% Tween80. A separate group of animals receive 2% hydroxypropyl methylcellulose, 1% Tween80 alone, containing no test compound, and serve as a vehicle-control group. At the end of the test period, animals are sacrificed and brain tissues, plasma or cerebrospinal fluid are collected. Brains are either homogenized in 10 volumes (w/v) of 0.2% diethylamine (DEA) in 50 mM NaCl (Best et al., 2005, Journal of Pharmacology and Experimental Therapeutics, 313, 902-908), or in 10 volumes of 0.5% TritonX-100 in Tris-buffered saline (pH at about 7.6). Homogenates are centrifuged at 355,000 g, 4° C. for 30 minutes. CSF or brain supernatants are then analyzed for the presence of A-beta peptide by specific sandwich ELISA assays based on ECL (Electrochemiluminescence) technology. For example, rat Abeta40 is measured using biotinylated-4G8 (Signet) as a capture antibody and Fab40 (an in-house antibody specific to the C-terminal of Abeta40) as a detection antibody. For example, 4 hours after administration of 30 mg/kg oral dose of the test compound in 2% hydroxypropyl methylcellulose, 1% Tween80 (pH2.2) to 200 g male Sprague Dawley rats, amyloid beta peptide levels are measured for reduction by X % and Y % in cerebrospinal fluid and brain, respectively, when compared to the levels measured in the vehicle-treated or control […].
Actual vehicles used: Oral: 2% HPMC, 1% Tween80, pH 2.2
• IV: 5% EtOH, 45% Propylene Glycol in 5% Dextrose
The compounds of the invention may be shown to reduce the formation and/or deposition of amyloid beta peptide in the cerebrospinal fluid (CSF) as well as in the brain of a mouse or rat at either 3 mpk, 10 mpk or 30 mpk (mpk=mg compound per kg weight of the animal) dosing concentrations after 4 hrs.

For another assay, the target named is Cathepsin D (Cat D) (Homo sapiens, UniProt P07339). Put plainly: In vitro enzymatic Cathepsin D (Cat D) FRET assay. Type of assay: biochemical. Summed up:
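Recombinant CHO-expressed enzyme (9 nM) pre-incubated 1 h with serially diluted inhibitor in 0.05 M citrate pH 3.5, 10% DMSO final, 5 mM CHAPS. Reaction started with 20 nM FRET peptide substrate, run 1 h, stopped with Tris to neutral pH; fluorescence read at ex 500/em 580 nm.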

The target in assay [1] is Beta Secretase enzyme (BACE) (Homo sapiens, UniProt P56817). Put plainly: In vitro enzymatic BACE FRET assay. Type of assay: biochemical. The note with it: read-out: BACE1 FRET assay IC50. The essentials: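 Enzyme (0.2 nM) pre-incubated 1 h with serially diluted inhibitors in 0.05 M acetate pH 4.2, 10% DMSO, 100 uM genapol. Reaction started with 50 nM fluorophore/quencher peptide FRET substrate, run 1 h, stopped with Tris to neutral pH. Fluorescence read at excitation 488 nm, […].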

Assay [2] concerns Aβ 40 in conditioned medium of cells stably expressing Amyloid Precursor Protein (APP). Put plainly: In vitro BACE cell-based assay (Aβ 40 sandwich ELISA). To be noted: Homo sapiens, HEK293. The essentials:
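APP-expressing cells, 24 h pre-culture in DMEM/10% FBS, treated 24 h with 10-point compound dilutions from 100 or 10 μM top, 0.1% DMSO final. Secreted Aβ40 quantified by sandwich ELISA (pAb40 capture, biotinylated 6E10 detection, europium TRF); IC50 from percent inhibition versus concentration.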
In general terms: ELISA stands for enzyme-linked immunosorbent assay.

[3] abbreviates: Abeta 40 in CSF of the rat, read-out: % reduction of rat CSF levels at 10 pmk.
Setting [4] is: Abeta 40 in brain of the rat, read-out: % reduction of rat brain levels at 10 mpk.
Setting [5] is: text summary referring to data in Table 2.

pIC50: −log10 of the molar value. Where two headings read alike, the source gives them in different places.

Chain of Cathepsin D (Cat D) (P07339 65-412, species assumed): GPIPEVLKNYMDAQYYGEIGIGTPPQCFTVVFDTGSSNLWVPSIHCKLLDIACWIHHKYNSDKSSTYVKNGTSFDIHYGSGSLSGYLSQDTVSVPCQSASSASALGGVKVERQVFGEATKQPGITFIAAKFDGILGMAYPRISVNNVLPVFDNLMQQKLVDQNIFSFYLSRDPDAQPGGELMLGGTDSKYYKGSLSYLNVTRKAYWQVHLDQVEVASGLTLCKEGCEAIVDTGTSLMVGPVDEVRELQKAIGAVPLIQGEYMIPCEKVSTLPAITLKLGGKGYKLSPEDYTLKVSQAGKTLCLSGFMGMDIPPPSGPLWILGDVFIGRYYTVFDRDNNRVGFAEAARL
Chain of Beta Secretase enzyme (BACE) (P56817 46-501): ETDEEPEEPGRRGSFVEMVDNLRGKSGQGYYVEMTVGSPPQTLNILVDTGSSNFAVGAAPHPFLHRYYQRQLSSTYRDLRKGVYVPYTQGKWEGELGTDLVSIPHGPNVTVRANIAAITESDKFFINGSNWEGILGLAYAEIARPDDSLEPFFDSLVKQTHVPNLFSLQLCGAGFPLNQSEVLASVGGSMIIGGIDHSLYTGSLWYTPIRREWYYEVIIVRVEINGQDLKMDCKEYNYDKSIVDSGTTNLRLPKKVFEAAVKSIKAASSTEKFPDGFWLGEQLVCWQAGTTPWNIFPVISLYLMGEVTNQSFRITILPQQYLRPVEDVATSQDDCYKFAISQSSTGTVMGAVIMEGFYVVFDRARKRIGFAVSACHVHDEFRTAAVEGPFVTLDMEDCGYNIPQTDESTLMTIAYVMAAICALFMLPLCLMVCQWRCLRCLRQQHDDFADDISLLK

As to `Cc1cc(C(F)(F)F)cnc1C(=O)Nc1ccc2c(c1)[C@@]1(C)N=C(N)C(C)(C)S(=O)(=O)[C@@H]1C[C@H](C)O2` [Example 54, N-((4aR,6S,11bR)-2-amino-3,3,6,11b-tetramethyl-4,4-dioxido-4a,5,6,11b-tetrahydro-3H-[1]benzoxepino[4,5-b][1,4]thiazin-10-yl)-3-methyl-5-(trifluoromethyl)-2-pyridinecarboxamide], the values for the inhibition in vivo at 10 mg/kg in the assay with Abeta 40 (setting [3]) and in the assay on Abeta 40 (setting [4]) were 76% and 63%, respectively. The pIC50 (usually the IC50 on a negative log10 scale, so that one unit is a factor of ten) is 2.79 at Cathepsin D (Cat D) (read-out: CatD IC50); less than 2.92 at Cathepsin D (Cat D) (setting [5]); 8.22 in assay [1] (average IC50); 9.00 in assay [2] (HEK cell, average IC50).
Consider `COc1cnc(C(=O)Nc2ccc3c(c2)[C@@]2(C)N=C(N)C(C)(C)S(=O)(=O)[C@@H]2C[C@H](C)O3)cn1` [Example 55, N-((4aR,6S,11bR)-2-amino-3,3,6,11b-tetramethyl-4,4-dioxido-4a,5,6,11b-tetrahydro-3H-[1]benzoxepino[4,5-b][1,4]thiazin-10-yl)-5-methoxy-2-pyrazinecarboxamide], for which the inhibition in vivo at 10 mg/kg in the assay on Abeta 40 (setting [3]) was found to be 74%; in the assay with Abeta 40 (setting [4]), 70%. The pIC50 on Cathepsin D (Cat D) (read-out: CatD IC50) was 3.19; in assay [1] (average IC50), 8.05; in assay [2] (HEK cell, average IC50), 8.40.
The corresponding values for `C[C@H]1C[C@@H]2[C@](C)(N=C(N)C(C)(C)S2(=O)=O)c2cc(Nc3nccc4cc(C#N)cnc34)ccc2O1` [Example 56, 8-(((4aR,6S,11bR)-2-amino-3,3,6,11b-tetramethyl-4,4-dioxido-4a,5,6,11b-tetrahydro-3H-[1]benzoxepino[4,5-b][1,4]thiazin-10-yl)amino)-1,7-naphthyridine-3-carbonitrile] are 70%, 61%, 3.26, 8.70 and 9.00.
`C[C@H]1C[C@@H]2[C@](C)(N=C(N)C(C)(C)S2(=O)=O)c2cc(NC(=O)c3ccc(C(F)(F)F)cn3)ccc2O1` [Example 84, N-((4aR,6S,11bR)-2-amino-3,3,6,11b-tetramethyl-4,4-dioxido-4a,5,6,11b-tetrahydro-3H-[1]benzoxepino[4,5-b][1,4]thiazin-10-yl)-5-(trifluoromethyl)-2-pyridinecarboxamide]: the values for the inhibition in vivo at 10 mg/kg with Abeta 40 (setting [3]) and with Abeta 40 (setting [4]) were 70% and 68%, respectively. The pIC50 is 2.56 at Cathepsin D (Cat D) (Cathepsin D FRET assay, read-out: CatD IC50); less than 2.92 on Cathepsin D (Cat D) (setting [5]); 7.92 in assay [1] (average IC50, in vitro enzymatic BACE FRET assay); 8.40 in assay [2] (average IC50, HEK cell assay, Aβ 40 readout).
`Cc1cc(OCC(F)(F)F)cnc1C(=O)Nc1ccc2c(c1)[C@@]1(C)N=C(N)C(C)(C)S(=O)(=O)[C@@H]1CCO2` [Example 187, N-((4aR,11bR)-2-amino-3,3,11b-trimethyl-4,4-dioxido-4a,5,6,11b-tetrahydro-3H-[1]benzoxepino[4,5-b][1,4]thiazin-10-yl)-3-methyl-5-(2,2,2-trifluoroethoxy)-2-pyridinecarboxamide]: the pIC50 at Cathepsin D (Cat D) (read-out: CatD IC50) was 2.91; in assay [1] (average IC50) it was 7.80; in assay [2] (HEK cells, average IC50) it was 7.19.
The corresponding values for `Cc1cc(C(F)(F)F)cnc1C(=O)Nc1ccc2c(c1)[C@@]1(C)N=C(N)C(C)(C)S(=O)(=O)[C@@H]1CCO2` [Example 188, N-((4aR,11bR)-2-amino-3,3,11b-trimethyl-4,4-dioxido-4a,5,6,11b-tetrahydro-3H-[1]benzoxepino[4,5-b][1,4]thiazin-10-yl)-3-methyl-5-(trifluoromethyl)-2-pyridinecarboxamide] are 2.81, 8.10 and 8.52.
The matching figures for `Cc1cc(Cl)cnc1C(=O)Nc1ccc2c(c1)[C@@]1(C)N=C(N)C(C)(C)S(=O)(=O)[C@@H]1C[C@H](C)O2` [Example 189, N-((4aR,6S,11bR)-2-amino-3,3,6,11b-tetramethyl-4,4-dioxido-4a,5,6,11b-tetrahydro-3H-[1]benzoxepino[4,5-b][1,4]thiazin-10-yl)-5-chloro-3-methyl-2-pyridinecarboxamide]: 3.72, 8.52 and 9.00.
For `Cc1cc(Cl)cnc1C(=O)Nc1ccc2c(c1)[C@@]1(C)N=C(N)C(C)(C)S(=O)(=O)[C@@H]1CC(C)(C)O2` [Example 190, N-((4aR,11bR)-2-amino-3,3,6,6,11b-pentamethyl-4,4-dioxido-4a,5,6,11b-tetrahydro-3H-[1]benzoxepino[4,5-b][1,4]thiazin-10-yl)-5-chloro-3-methyl-2-pyridinecarboxamide], the pIC50 is 3.36 on Cathepsin D (Cat D) (read-out: CatD IC50); 8.30 in assay [1] (average IC50); 8.70 in assay [2] (HEK cells, average IC50).
The matching figures for `CC#CCOc1cnc(C(=O)Nc2ccc3c(c2)[C@@]2(C)N=C(N)C(C)(C)S(=O)(=O)[C@@H]2CCO3)cn1` [Example 191, N-((4aR,11bR)-2-amino-3,3,11b-trimethyl-4,4-dioxido-4a,5,6,11b-tetrahydro-3H-[1]benzoxepino[4,5-b][1,4]thiazin-10-yl)-5-(2-butyn-1-yloxy)-2-pyrazinecarboxamide]: 3.20, 9.15 and 9.52.
The matching figures for `Cc1cc(C#N)cnc1C(=O)Nc1ccc2c(c1)[C@@]1(C)N=C(N)C(C)(C)S(=O)(=O)[C@@H]1CCO2` [Example 192, N-((4aR,11bR)-2-amino-3,3,11b-trimethyl-4,4-dioxido-4a,5,6,11b-tetrahydro-3H-[1]benzoxepino[4,5-b][1,4]thiazin-10-yl)-5-cyano-3-methyl-2-pyridinecarboxamide]: 3.36, 8.70 and 9.00.
The corresponding values for `CC1(C)C(N)=N[C@]2(C)c3cc(NC(=O)c4ccc(C#CC5CC5)cn4)ccc3OCC[C@H]2S1(=O)=O` [Example 193, N-((4aR,11bR)-2-amino-3,3,11b-trimethyl-4,4-dioxido-4a,5,6,11b-tetrahydro-3H-[1]benzoxepino[4,5-b][1,4]thiazin-10-yl)-5-(cyclopropylethynyl)-2-pyridinecarboxamide] are 3.00, 8.40 and 8.22.
Consider `CC1(C)C(N)=N[C@]2(C)c3cc(NC(=O)c4ccc(OC(F)F)cn4)ccc3OCC[C@H]2S1(=O)=O` [Example 194, N-((4aR,11bR)-2-amino-3,3,11b-trimethyl-4,4-dioxido-4a,5,6,11b-tetrahydro-3H-[1]benzoxepino[4,5-b][1,4]thiazin-10-yl)-5-(difluoromethoxy)-2-pyridinecarboxamide], for which the pIC50 on Cathepsin D (Cat D) (read-out: CatD IC50) was 3.19; in assay [1] (average IC50), 8.10; in assay [2] (HEK cells, average IC50), 8.52.

The record behind these values is US9309263B2, “Fused multi-cyclic sulfone compounds as inhibitors of beta-secretase and methods of use thereof” (AMGEN INC., priority 2013, dated 2016).
